Source: US9422274B2, “Oxazolidinone derivatives and composition for preventing or treating hepatitis C containing the same” (KOREA INSTITUTE OF SCIENCE AND TECHNOLOGY, priority 2013, dated 2016)

Legend:
Hepatitis C virus [1] = assay: Anti-viral activity test (HCVcc, Type 2a), JFH 5a-Rluc luciferase in Huh7.5.1 cell line; assay type: cell-based; conditions: for inhibition: Huh-7.5.1, luciferase activity, negative control = 100%, Huh7.5.1 cells infected with JFH 5a-Rluc, read-out: HCV inhibition rate %; for EC50: Huh-7.5.1, read-out: EC50 (concentration of compound to inhibit the 50% of viral growth)
Description: The inhibitory effect of the oxazolidinone compounds on HCV replicon and NS5A were HCV was tested by the method disclosed in KR-A 10-2010-0007937 or US-A 2010/0215696.
The cell lines containing replicon were prepared by preparing JFH 5a-Rluc (plasmid expressing Renilla luciferase reporter protein) RNA according to the method disclosed in the documents, introducing the JFH 5a-Rluc RNA into host cell lines (Huh7.5.1 cell line) by electroporation and infecting the host cell lines (Zhnog et al., Proc. Natl. Acad. Sci. USA, 102, 9294-9299). After the infected cell lines were cultured with or without the treatment of the oxazolidinone compound, the luciferase activity was detected to obtain the inhibitory effect of […] replicon replication. EC50) of the compound was determined by performing the test at various concentrations of the compound.
The compounds Example 1 to 17 were tested for anti-viral activity on Hepatitis C virus, according to the method of KR10-2010-0007937 (published on Jan. 22, 2010) or US2010/0215696 (published on Aug. 26, 2010).
The cell lines containing replicon were prepared by preparing JFH 5a-Rluc (plasmid expressing Renilla luciferase reporter protein) RNA according to the method disclosed in the documents, introducing the JFH 5a-Rluc RNA into host cell lines (Huh7.5.1 cell line) by electroporation and infecting the host cell lines (Zhnog et al., Proc. Natl. Acad. Sci. USA, 102, 9294-9299). After the infected cell lines were cultured with or without the treatment of 1 mM of the oxazolidinone compounds of Examples 1 to 17, the host cell lines were obtained on 1, 2 and 3 days after treatment, and the luciferase activity produced from the host cells was measured.
The luciferase activity of negative control which was not treated with the oxazolidinone compound is set to 100%. At various amounts of the oxazolidinone compounds, the luciferase activities were calculated based on the negative control to obtain the inhibition rate of HCV (%). The positive control was Interferon (INF)(Sigma, SRP4595).

Hepatitis C virus [2] = assay: as above; assay type: cell-based, Hepatitis C virus (HCVcc; conditions: for inhibition at 0.001 µM: Hepatitis C virus, Huh-7.5.1, read-out: inhibition rate; for remnant HCV amount: treated at a concentration of 1 nM

SMILES | inhibition (Hepatitis C virus [1]) | EC50 (Hepatitis C virus [1]) | inhibition at 0.001 µM (Hepatitis C virus [2]) | remnant HCV amount (Hepatitis C virus [2])
CC(C)(C)OC(=O)N1CCC[C@H]1c1ncc(-c2ccc(-c3ccc(N4C[C@H](Cn5ccnn5)OC4=O)cc3F)cc2)[nH]1 [Example 1, tert-Butyl(S)-2-(5-(4′-((R)-5-((1H-1,2,3-triazol-1-yl)methyl)-2-oxooxazolidin-3-yl)-2′-fluoro-[1,1′-biphenyl]-4-yl)-1H-imidazol-2-yl)pyrrolidine-1-carboxylate] | 31.7% |  |  | 
CC(=O)N1CCC[C@H]1c1ncc(-c2ccc(-c3ccc(N4C[C@H](Cn5ccnn5)OC4=O)cc3F)cc2)[nH]1 [Example 2, (R)-5-((1H-1,2,3-Triazol-1-yl)methyl)-3-(4′-(2-((S)-1-acetylpyrrolidin-2-yl)-1H-imidazol-5-yl)-2-fluoro-[1,1′-biphenyl]-4-yl)oxazolidin-2-one] | 32% |  |  | 
COC(=O)N[C@H](C(=O)N1CCC[C@H]1c1ncc(-c2ccc(-c3ccc(N4C[C@H](Cn5ccnn5)OC4=O)cc3F)cc2)[nH]1)C(C)C [Example 3, Methyl ((S)-1-((S)-2-(5-(4′-((R)-5-((1H-1,2,3-triazol-1-yl)methyl)-2-oxooxazolidin-3-yl)-2′-fluoro-[1,1′-biphenyl]-4-yl)-1H-imidazol-2-yl)pyrrolidin-1-yl)-3-methyl-1-oxobutan-2-yl)carbamate] | 99.8% | 0.98 nM | 78.9% | 21.1%
COC(=O)N[C@H](C(=O)N1CCC[C@H]1c1ncc(-c2ccc(-c3ccc(N4C[C@H](Cn5ccnn5)OC4=O)cc3F)cc2)[nH]1)c1ccccc1 [Example 4, methyl ((S)-2-((S)-2-(5-(4′-((R)-5-((1H-1,2,3-triazol-1-yl)methyl)-2-oxooxazolidin-3-yl)-2′-fluoro-[1,1′-biphenyl]-4-yl)-1H-imidazol-2-yl)pyrrolidin-1-yl)-2-oxo-1-phenylethyl)carbamate] | 95.2% |  |  | 
COC(=O)N[C@H](C(=O)N1CCC[C@H]1c1ncc(-c2ccc(-c3ccc(N4C[C@H](Cn5cc(CO)nn5)OC4=O)cc3F)cc2)[nH]1)C(C)C [Example 5, Methyl ((S)-1-((S)-2-(5-(2′-fluoro-4′-((R)-5-((4-(hydroxymethyl)-1H-1,2,3-triazol-1-yl)methyl)-2-oxooxazolidin-3-yl)-[1,1′-biphenyl]-4-yl)-1H-imidazol-2-yl)pyrrolidin-1-yl)-3-methyl-1-oxobutan-2-yl)carbamate] | 95.8% |  |  | 
COC(=O)N[C@H](C(=O)N1CCC[C@H]1c1ncc(-c2ccc(-c3ccc(N4C[C@H](Cn5cc(CCO)nn5)OC4=O)cc3F)cc2)[nH]1)C(C)C [Example 6, Methyl ((S)-1-((S)-2-(5-(2′-fluoro-4′-((R)-5-((4-(2-hydroxyethyl)-1H-1,2,3-triazol-1-yl)methyl)-2-oxooxazolidin-3-yl)-[1,1′-biphenyl]-4-yl)-1H-imidazol-2-yl)pyrrolidin-1-yl)-3-methyl-1-oxobutan-2-yl)carbamate] | 84.4% |  |  | 
COCc1cn(C[C@H]2CN(c3ccc(-c4ccc(-c5cnc([C@@H]6CCCN6C(=O)[C@@H](NC(=O)OC)C(C)C)[nH]5)cc4)c(F)c3)C(=O)O2)nn1 [Example 7, Methyl ((S)-1-((S)-2-(5-(2′-fluoro-4′-((R)-5-((4-(methoxymethyl)-1H-1,2,3-triazol-1-yl)methyl)-2-oxooxazolidin-3-yl)-[1,1′-biphenyl]-4-yl)-1H-imidazol-2-yl)pyrrolidin-1-yl)-3-methyl-1-oxobutan-2-yl)carbamate] | 83.3% |  |  | 
COC(=O)N[C@H](C(=O)N1CCC[C@H]1c1ncc(-c2ccc(-c3ccc(N4C[C@H](Cn5cc(COC(C)=O)nn5)OC4=O)cc3F)cc2)[nH]1)C(C)C [Example 8, 1-(((R)-3-(2-Fluoro-4′-(2-((S)-1-((methoxycarbonyl)-L-valyl)pyrrolidin-2-yl)-1H-imidazol-5-yl)-[1,1′-biphenyl]-4-yl)-2-oxooxazolidin-5-yl)methyl)-1H-1,2,3-triazol-4-yl)methyl acetate] | 79.8% |  |  | 
COC(=O)N[C@H](C(=O)N1CCC[C@H]1c1ncc(-c2ccc(-c3ccc(N4C[C@H](Cn5cc(COCc6ccccc6)nn5)OC4=O)cc3F)cc2)[nH]1)C(C)C [Example 9, Methyl ((S)-1-((S)-2-(5-(4′-((R)-5-((4-((benzyloxy)methyl)-1H-1,2,3-triazol-1-yl)methyl)-2-oxooxazolidin-3-yl)-2′-fluoro-[1,1′-biphenyl]-4-yl)-1H-imidazol-2-yl)pyrrolidin-1-yl)-3-methyl-1-oxobutan-2-yl)carbamate] | 97.3% | 17.4 nM | 97% | 3.0%
COC(=O)N[C@H](C(=O)N1CCC[C@H]1c1ncc(-c2ccc(-c3ccc(N4C[C@H](Cn5cc(CNC(C)=O)nn5)OC4=O)cc3F)cc2)[nH]1)C(C)C [Example 10, Methyl ((S)-1-((S)-2-(5-(4′-((R)-5-((4-(acetamidomethyl)-1H-1,2,3-triazol-1-yl)methyl)-2-oxooxazolidin-3-yl)-2′-fluoro-[1,1′-biphenyl]-4-yl)-1H-imidazol-2-yl)pyrrolidin-1-yl)-3-methyl-1-oxobutan-2-yl)carbamate] | 32.8% |  |  | 
COC(=O)N[C@H](C(=O)N1CCC[C@H]1c1ncc(-c2ccc(-c3ccc(N4C[C@H](Cn5cc(-c6ccccc6)nn5)OC4=O)cc3F)cc2)[nH]1)C(C)C [Example 11, Methyl ((S)-1-((S)-2-(5-(2′-fluoro-4′-((R)-2-oxo-5-((4-phenyl-1H-1,2,3-triazol-1-yl)methyl)oxazolidin-3-yl)-[1,1′-biphenyl]-4-yl)-1H-imidazol-2-yl)pyrrolidin-1-yl)-3-methyl-1-oxobutan-2-yl)carbamate] | 96.7% |  | 95.2% | 6.8%
COC(=O)N[C@H](C(=O)N1CCC[C@H]1c1ncc(-c2ccc(-c3ccc(N4C[C@H](CNC(C)=O)OC4=O)cc3F)cc2)[nH]1)C(C)C [Example 12, Methyl ((S)-1-((S)-2-(5-(4′-((S)-5-(acetamidomethyl)-2-oxooxazolidin-3-yl)-2′-fluoro-[1,1′-biphenyl]-4-yl)-1H-imidazol-2-yl)pyrrolidin-1-yl)-3-methyl-1-oxobutan-2-yl)carbamate] | 99.8% |  | 27% | 73%
CC(=O)NC[C@H]1CN(c2ccc(-c3ccc(-c4cnc([C@@H]5CCCN5C(=O)OC(C)(C)C)[nH]4)cc3)c(F)c2)C(=O)O1 [Example 13, tert-Butyl (S)-2-(5-(4′-((S)-5-(acetamidomethyl)-2-oxooxazolidin-3-yl)-2′-fluoro-[1,1′-biphenyl]-4-yl)-1H-imidazol-2-yl)pyrrolidine-1-carboxylate] | 46.2% |  |  | 
CC(=O)NC[C@H]1CN(c2ccc(-c3ccc(-c4cnc([C@@H]5CCCN5C(C)=O)[nH]4)cc3)c(F)c2)C(=O)O1 [Example 14, N—(((S)-3-(4′-(2-((S)-1-acetylpyrrolidin-2-yl)-H-imidazol-5-yl)-2-fluoro-[1,1′-biphenyl]-4-yl)-2-oxooxazolidin-5-yl)methyl)acetamide] | 28% |  |  | 
COC(=O)N[C@H](C(=O)NC[C@H]1CN(c2ccc(-c3ccc(-c4cnc([C@@H]5CCCN5C(=O)[C@@H](NC(=O)OC)C(C)C)[nH]4)cc3)c(F)c2)C(=O)O1)C(C)C [Example 15, Methyl ((S)-1-((((S)-3-(2-fluoro-4′-(2-((S)-1-((methoxycarbonyl)-L-valyl)pyrrolidin-2-yl)-1H-imidazol-5-yl)-[1,1′-biphenyl]-4-yl)-2-oxooxazolidin-5-yl)methyl)amino)-3-methyl-1-oxobutan-2-yl)carbamate] | 99.8% | 1 nM | 44.3% | 55.7%
COC(=O)N[C@H](C(=O)NC[C@H]1CN(c2ccc(-c3ccc(-c4cnc([C@@H]5CCCN5C(=O)OC(C)(C)C)[nH]4)cc3)c(F)c2)C(=O)O1)C(C)C [Example 16, tert-Butyl (S)-2-(5-(2′-fluoro-4′-((S)-5-(((S)-2-((methoxycarbonyl)amino)-3-methylbutanamido)methyl)-2-oxooxazolidin-3-yl)-[1,1-biphenyl]-4-yl)-1H-imidazol-2-yl)pyrrolidine-1-carboxylate] | 58% |  |  | 
COC(=O)N[C@H](C(=O)NC[C@H]1CN(c2ccc(-c3ccc(-c4cnc([C@@H]5CCCN5C(C)=O)[nH]4)cc3)c(F)c2)C(=O)O1)C(C)C [Example 17, Methyl ((S)-1-((((S)-3-(4′-(2-((S)-1-acetylpyrrolidin-2-yl)-1H-imidazol-5-yl)-2-fluoro-[1,1′-biphenyl]-4-yl)-2-oxooxazolidin-5-yl)methyl)amino)-3-methyl-1-oxobutan-2-yl)carbamate] | 38.1% |  |  | 
